The NIST ThermoML archive (doi:10.1021/acs.jced.8b01046)
Several values for one entry are separate records, joined by “and”; a condition that tells them apart may be missing. Equal values may be shown once. ± gives the expanded uncertainty stated by the source.

How the values were obtained:
[1] = Liquid; for mass density: Vibrating tube method
[2] = wn = mass fraction of the nth substance listed; conditions: 102 kPa, Liquid, Vibrating tube method

Q: With `CCCCCCCC(=O)OCC(COC(=O)CCCCCCC)OC(=O)CCCCCCC` [1,2,3-propanetriol trioctanoate] as the compound, how does the mass density ([1]; 293.15 K, 102 kPa) read?
A: Its mass density is 952.7 ± 3.8 kg/m3.

Q: What about the mass density ([1]; 298.15 K, 102 kPa) of the same compound?
A: Its mass density is 948.9 ± 3.8 kg/m3.

Q: And the mass density ([1]; 298.15 K, 120 kPa)?
A: The mass density was 949.9 ± 3.8 kg/m3.

Q: What about the mass density ([1]; 298.15 K, 9830 kPa) of the same compound?
A: Its mass density is 955.5 ± 3.8 kg/m3.

Q: And the mass density ([1]; 298.15 K, 20100 kPa)?
A: The mass density was 961.3 ± 3.9 kg/m3.

Q: And the mass density ([1]; 298.15 K, 30020 kPa)?
A: Its mass density is 966.6 ± 3.9 kg/m3.

Q: What about the mass density ([1]; 298.15 K, 40050 kPa) of the same compound?
A: The mass density was 971.9 ± 3.9 kg/m3.

Q: What about the mass density ([1]; 298.15 K, 50040 kPa) of the same compound?
A: The mass density was 977.1 ± 3.9 kg/m3.

Q: And the mass density ([1]; 303.15 K, 102 kPa)?
A: The mass density was 944.9 ± 3.8 kg/m3.

Q: And the mass density ([1]; 313.15 K, 102 kPa)?
A: Its mass density is 937.4 ± 3.8 kg/m3.

Q: And the mass density ([1]; 333.15 K, 102 kPa)?
A: Its mass density is 922.5 ± 3.7 kg/m3.

Q: What about the mass density ([1]; 353.15 K, 102 kPa) of the same compound?
A: The mass density was 907.7 ± 3.6 kg/m3.

Q: And the “vapor or sublimation pressure” value ([1]; 403.2 K, Transpiration method)?
A: The value was 0.0002069 ± 2.2e-05 kPa.

Q: What about the “vapor or sublimation pressure” value ([1]; 408.2 K, Transpiration method) of the same compound?
A: Its value is 0.0003133 ± 3.4e-05 kPa.

Q: And the “vapor or sublimation pressure” value ([1]; 413.2 K, Transpiration method)?
A: The value was 0.0004698 ± 5.1e-05 kPa.

Q: What about the “vapor or sublimation pressure” value ([1]; 423.2 K, Transpiration method) of the same compound?
A: The value was 0.001006 ± 0.00011 kPa.

Q: What about the “vapor or sublimation pressure” value ([1]; 433.2 K, Transpiration method) of the same compound?
A: The value was 0.001977 ± 0.00021 kPa.

Q: And the “vapor or sublimation pressure” value ([1]; 443.2 K, Transpiration method)?
A: Its value is 0.004016 ± 0.00043 kPa.

Q: What about the “vapor or sublimation pressure” value ([1]; 448.2 K, Transpiration method) of the same compound?
A: Its value is 0.005491 ± 0.00059 kPa.

Q: Which mass density ([1]; 293.15 K, 102 kPa) does the source give for `CCCCCCCCCC(=O)OCC(COC(=O)CCCCCCCCC)OC(=O)CCCCCCCCC` [1,2,3-propanetriyl tridecanoate] here?
A: Its mass density is 921.6 ± 3.7 kg/m3.

Q: And the mass density ([1]; 298.15 K, 102 kPa)?
A: The mass density was 917.9 ± 3.7 kg/m3.

Q: And the mass density ([1]; 303.15 K, 102 kPa)?
A: Its mass density is 913.6 ± 3.7 kg/m3.

Q: What about the mass density ([1]; 313.15 K, 102 kPa) of the same compound?
A: Its mass density is 906.2 ± 3.7 kg/m3.

Q: And the mass density ([1]; 333.15 K, 102 kPa)?
A: Its mass density is 891 ± 3.6 kg/m3.

Q: And the “vapor or sublimation pressure” value ([1]; 348.5 K, Langmuir technique)?
A: The value was 1.39e-08 ± 5.6e-09 kPa and 1.36e-08 ± 5.5e-09 kPa.

Q: And the mass density ([1]; 353.15 K, 102 kPa)?
A: The mass density was 875.9 ± 3.6 kg/m3.

Q: What about the “vapor or sublimation pressure” value ([1]; 353.48 K, Langmuir technique) of the same compound?
A: Its value is 2.94e-08 ± 1.2e-08 kPa and 2.9e-08 ± 1.2e-08 kPa.

Q: What about the “vapor or sublimation pressure” value ([1]; 358.38 K, Langmuir technique) of the same compound?
A: The value was 5.99e-08 ± 2.4e-08 kPa.

Q: And the “vapor or sublimation pressure” value ([1]; 363.18 K, Langmuir technique)?
A: The value was 1.19e-07 ± 4.8e-08 kPa and 1.2e-07 ± 4.9e-08 kPa.

Q: And the “vapor or sublimation pressure” value ([1]; 367.8 K, Langmuir technique)?
A: The value was 2.27e-07 ± 9.2e-08 kPa.

Q: What about the “vapor or sublimation pressure” value ([1]; 367.81 K, Langmuir technique) of the same compound?
A: The value was 2.23e-07 ± 9.1e-08 kPa.

Q: With `CCCCCCCCCC(=O)OCC(COC(=O)CCCCCCCCC)OC(=O)CCCCCCCCC` [1,2,3-propanetriyl tridecanoate] + CCCCCCCCO as the compound, how does the mass density ([2]; 293.15 K, w1 = 0.016) read?
A: Its mass density is 826.5 ± 3.3 kg/m3.

Q: And the mass density ([2]; 293.15 K, w1 = 0.0385)?
A: The mass density was 828.7 ± 3.3 kg/m3.

Q: And the mass density ([2]; 293.15 K, w1 = 0.0772)?
A: The mass density was 832.5 ± 3.3 kg/m3.

Q: What about the mass density ([2]; 293.15 K, w1 = 0.1287) of the same compound?
A: The mass density was 837.4 ± 3.4 kg/m3.

Q: What about the mass density ([2]; 293.15 K, w1 = 1) of the same compound?
A: Its mass density is 921.6 ± 3.7 kg/m3.

Q: What about the mass density ([2]; 298.15 K, w1 = 0.016) of the same compound?
A: Its mass density is 823.1 ± 3.3 kg/m3.

Q: What about the mass density ([2]; 298.15 K, w1 = 0.0385) of the same compound?
A: Its mass density is 825.1 ± 3.3 kg/m3.

Q: What about the mass density ([2]; 298.15 K, w1 = 0.0772) of the same compound?
A: Its mass density is 829 ± 3.3 kg/m3.

Q: What about the mass density ([2]; 298.15 K, w1 = 0.1287) of the same compound?
A: The mass density was 833.9 ± 3.3 kg/m3.

Q: And the mass density ([2]; 298.15 K, w1 = 1)?
A: Its mass density is 917.9 ± 3.7 kg/m3.

Q: What about the mass density ([2]; 303.15 K, w1 = 0.016) of the same compound?
A: Its mass density is 819.5 ± 3.3 kg/m3.

Q: And the mass density ([2]; 303.15 K, w1 = 0.0385)?
A: The mass density was 821.6 ± 3.3 kg/m3.

Q: And the mass density ([2]; 303.15 K, w1 = 0.0772)?
A: Its mass density is 825.4 ± 3.3 kg/m3.

Q: And the mass density ([2]; 303.15 K, w1 = 0.1287)?
A: Its mass density is 830.3 ± 3.3 kg/m3.

Q: What about the mass density ([2]; 303.15 K, w1 = 1) of the same compound?
A: The mass density was 913.6 ± 3.7 kg/m3.

Q: What about the mass density ([2]; 313.15 K, w1 = 0.016) of the same compound?
A: The mass density was 812.6 ± 3.3 kg/m3.

Q: What about the mass density ([2]; 313.15 K, w1 = 0.0385) of the same compound?
A: The mass density was 814.7 ± 3.3 kg/m3.

Q: What about the mass density ([2]; 313.15 K, w1 = 0.0772) of the same compound?
A: Its mass density is 818.5 ± 3.3 kg/m3.

Q: And the mass density ([2]; 313.15 K, w1 = 0.1287)?
A: Its mass density is 823.3 ± 3.3 kg/m3.

Q: What about the mass density ([2]; 313.15 K, w1 = 1) of the same compound?
A: The mass density was 906.2 ± 3.7 kg/m3.

Q: And the mass density ([2]; 333.15 K, w1 = 0.016)?
A: The mass density was 798.6 ± 3.2 kg/m3.

Q: What about the mass density ([2]; 333.15 K, w1 = 0.0385) of the same compound?
A: Its mass density is 800.7 ± 3.2 kg/m3.

Q: What about the mass density ([2]; 333.15 K, w1 = 0.0772) of the same compound?
A: The mass density was 804.3 ± 3.2 kg/m3.

Q: And the mass density ([2]; 333.15 K, w1 = 0.1287)?
A: The mass density was 809.1 ± 3.2 kg/m3.

Q: What about the mass density ([2]; 333.15 K, w1 = 1) of the same compound?
A: Its mass density is 891 ± 3.6 kg/m3.

Q: And the mass density ([2]; 353.15 K, w1 = 0.016)?
A: Its mass density is 783.8 ± 3.1 kg/m3.

Q: And the mass density ([2]; 353.15 K, w1 = 0.0385)?
A: The mass density was 785.9 ± 3.2 kg/m3.

Q: What about the mass density ([2]; 353.15 K, w1 = 0.0772) of the same compound?
A: Its mass density is 789.5 ± 3.2 kg/m3.

Q: And the mass density ([2]; 353.15 K, w1 = 0.1287)?
A: The mass density was 794.4 ± 3.2 kg/m3.

Q: And the mass density ([2]; 353.15 K, w1 = 1)?
A: Its mass density is 875.9 ± 3.6 kg/m3.

Q: For `CCCCCCCCCCCC(=O)OCC(COC(=O)CCCCCCCCCCC)OC(=O)CCCCCCCCCCC` [1,2,3-propanetriyl tridodecanoate], which mass density ([1]; 303.15 K, 100 kPa) is on record?
A: The mass density was 905.1 ± 3.7 kg/m3.

Q: What about the mass density ([1]; 313.15 K, 100 kPa) of the same compound?
A: The mass density was 899.6 ± 3.7 kg/m3.

Q: And the mass density ([1]; 333.15 K, 100 kPa)?
A: The mass density was 886.9 ± 3.6 kg/m3.

Q: And the mass density ([1]; 353.15 K, 100 kPa)?
A: The mass density was 870.4 ± 3.5 kg/m3.

Q: With `CCCCCCCCCCCC(=O)OCC(COC(=O)CCCCCCCCCCC)OC(=O)CCCCCCCCCCC` [1,2,3-propanetriyl tridodecanoate] + CCCCCCCCO as the compound, how does the mass density ([2]; 293.15 K, w1 = 0.019) read?
A: Its mass density is 826.7 ± 3.3 kg/m3.

Q: What about the mass density ([2]; 293.15 K, w1 = 0.051) of the same compound?
A: The mass density was 829.5 ± 3.3 kg/m3.

Q: And the mass density ([2]; 298.15 K, w1 = 0.019)?
A: Its mass density is 823.3 ± 3.3 kg/m3.

Q: What about the mass density ([2]; 298.15 K, w1 = 0.051) of the same compound?
A: Its mass density is 826.2 ± 3.3 kg/m3.

Q: What about the mass density ([2]; 303.15 K, w1 = 0.019) of the same compound?
A: The mass density was 819.7 ± 3.3 kg/m3.

Q: And the mass density ([2]; 303.15 K, w1 = 0.051)?
A: Its mass density is 822.5 ± 3.3 kg/m3.

Q: What about the mass density ([2]; 303.15 K, w1 = 0.096) of the same compound?
A: Its mass density is 826.8 ± 3.3 kg/m3.

Q: And the mass density ([2]; 303.15 K, w1 = 0.149)?
A: The mass density was 831 ± 3.3 kg/m3.

Q: And the mass density ([2]; 303.15 K, w1 = 1)?
A: The mass density was 905.1 ± 3.7 kg/m3.

Q: What about the mass density ([2]; 313.15 K, w1 = 0.019) of the same compound?
A: Its mass density is 812.8 ± 3.3 kg/m3.

Q: And the mass density ([2]; 313.15 K, w1 = 0.051)?
A: The mass density was 815.6 ± 3.3 kg/m3.

Q: And the mass density ([2]; 313.15 K, w1 = 0.096)?
A: Its mass density is 819.7 ± 3.3 kg/m3.

Q: What about the mass density ([2]; 313.15 K, w1 = 0.149) of the same compound?
A: Its mass density is 824 ± 3.3 kg/m3.

Q: And the mass density ([2]; 313.15 K, w1 = 1)?
A: Its mass density is 899.6 ± 3.7 kg/m3.

Q: What about the mass density ([2]; 333.15 K, w1 = 0.019) of the same compound?
A: The mass density was 798.7 ± 3.2 kg/m3.

Q: What about the mass density ([2]; 333.15 K, w1 = 0.051) of the same compound?
A: Its mass density is 801.5 ± 3.2 kg/m3.

Q: What about the mass density ([2]; 333.15 K, w1 = 0.096) of the same compound?
A: The mass density was 805.6 ± 3.2 kg/m3.

Q: And the mass density ([2]; 333.15 K, w1 = 0.149)?
A: The mass density was 809.9 ± 3.3 kg/m3.

Q: And the mass density ([2]; 333.15 K, w1 = 1)?
A: Its mass density is 886.9 ± 3.6 kg/m3.

Q: What about the mass density ([2]; 353.15 K, w1 = 0.019) of the same compound?
A: The mass density was 784 ± 3.1 kg/m3.

Q: What about the mass density ([2]; 353.15 K, w1 = 0.051) of the same compound?
A: The mass density was 786.8 ± 3.2 kg/m3.

Q: And the mass density ([2]; 353.15 K, w1 = 0.096)?
A: The mass density was 790.9 ± 3.2 kg/m3.

Q: And the mass density ([2]; 353.15 K, w1 = 0.149)?
A: The mass density was 795.2 ± 3.2 kg/m3.

Q: And the mass density ([2]; 353.15 K, w1 = 1)?
A: Its mass density is 870.4 ± 3.5 kg/m3.
